Data taken from patent US6461997B1, “Triazole sulfones having herbicidal activity” (Monsanto Technology LLC, priority 1999, dated 2002).

These compounds were tested on PANDI (fall panicum) (assay: Pre-emergence herbicidal activity, warm season). Conditions: GR80 = lowest tested rate (300, 100, 30, 10 g/ha) with 80% or greater inhibition; approx. 14 days after treating; 30/21° C.
Assay type: in vivo, Panicum dichotomiflorum
Outline: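 Seeds sown in sterilised fertilised topsoil received surface-applied compound in 50:50 acetone/water, typically at 300, 100, 30 and 10 g/ha, then greenhouse-grown at 30/21° C (warm-season species) or 18/13° C (cool-season species). Percent inhibition versus untreated plants was scored at about 14 days, giving GR80; an asterisk marks activity short of 80% at the top rate.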
In the case of `CCN(CC)C(=O)n1cnc(S(=O)(=O)C(F)(F)Br)n1` [Example 1, 3-(bromodifluoromethylsulfonyl)-1-(N,N-diethylcarbamoyl)-1,2,4-triazole], the “Pre-emergence activity (GR80) PANDI” value is reported as 30 g/ha.

Each compound was assayed on BROTE (downy brome) (assay: Post-emergence herbicidal activity, cool season). Conditions: abraded plants sprayed at 300, 100, 30 and 10 g/ha; about 14 days after treatment.
Assay type: in vivo, Bromus tectorum
Outline: (§1)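 GR80 values derive from percent growth inhibition scored approximately 14 days post-spray against abraded, unsprayed controls under an 18/13 °C regime. Foliar application to sandblast-abraded plants used rates of 300, 100, 30 and 10 g/ha in 50:50 acetone/water at 3,100 l/ha.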
With `CCN(CC)C(=O)n1cnc(S(=O)(=O)C(F)(F)Br)n1` [Example 1, 3-(bromodifluoromethylsulfonyl)-1-(N,N-diethylcarbamoyl)-1,2,4-triazole] the “Post-emergence activity GR80, BROTE” value was “[empty]”.

What follows are compounds tested on BROTE (downy brome) (assay: Pre-plant incorporated (PPI) herbicidal activity, cool season). Conditions: Bromus tectorum; weed, PPI application, 30 g/ha; read-out: Percent inhibition BROTE.
Assay type: in vivo, Bromus tectorum
Method: (§2) In another set of tests, the pre-plant incorporated (PPI) activity of compounds of this invention was evaluated on the same species as for the pre-emergence tests described above. In the PPI tests the following procedure, designed to simulate PPI application, was used.
(§3) A pre-prepared topsoil mixture (described above) was placed in a pot and compacted to a depth of 1.0 to 1.25 cm from the top of the pot. Seeds of each of several monocotyledonous and dicotyledonous annual plant species were placed on top of the soil. A sufficient quantity of soil to cover the seeds and level fill the pot was weighed into an open container. A known amount of the test compound was dissolved or suspended in an organic solvent and applied by spraying to this cover soil. The cover soil was thoroughly mixed to distribute the test compound throughout the cover soil, and was then applied as a cover layer over the seeds. Untreated soil was used as a cover layer for control pots. After treatment the plants were placed in a greenhouse where they received 0.64 cm of overhead irrigation. All subsequent watering consisted of a light overhead mist and/or subirrigation as needed for germination and growth. Tables 9 and 10 below relate to warm season plant species which were placed after pre-emergence treatment in a greenhouse with a 30/21° C. day/night temperature regime. Tables 11 and 12 below relates to cool season plant species placed after pre-emergence treatment in a greenhouse or growth chamber with an 18/13° C. day/night temperature regime. Only the compounds of Examples 1, 6, 8, 11, 13 and 15-20 were included in PPI tests.
(§4) Approximately 14 days after planting and treating, the plants were observed and herbicidal efficacy recorded as percent inhibition by comparison with untreated plants.
With `CCN(CC)C(=O)n1cnc(S(=O)(=O)C(F)(F)Br)n1` [Example 1, 3-(bromodifluoromethylsulfonyl)-1-(N,N-diethylcarbamoyl)-1,2,4-triazole] the inhibition at 30 g/ha was 0%.

Same assay, conditions: Bromus tectorum; weed, PPI application, 100 g/ha; read-out: Percent inhibition BROTE
`CCN(CC)C(=O)n1cnc(S(=O)(=O)C(F)(F)Br)n1` [Example 1, 3-(bromodifluoromethylsulfonyl)-1-(N,N-diethylcarbamoyl)-1,2,4-triazole] gave an inhibition at 100 g/ha of 20%.

Same assay, conditions: Bromus tectorum; weed, PPI application, 300 g/ha; read-out: Percent inhibition BROTE
Work on `CCN(CC)C(=O)n1cnc(S(=O)(=O)C(F)(F)Br)n1` [Example 1, 3-(bromodifluoromethylsulfonyl)-1-(N,N-diethylcarbamoyl)-1,2,4-triazole] yielded an inhibition at 300 g/ha of 50%.

Same assay, conditions: Bromus tectorum; weed, PPI application, 900 g/ha; read-out: Percent inhibition BROTE
`CCN(CC)C(=O)n1cnc(S(=O)(=O)C(F)(F)Br)n1` [Example 1, 3-(bromodifluoromethylsulfonyl)-1-(N,N-diethylcarbamoyl)-1,2,4-triazole] showed an inhibition at 900 g/ha of 100%.

Same assay, conditions: pre-plant incorporated; lowest tested rate with 80% or greater inhibition; about 14 days
`CCN(CC)C(=O)n1cnc(S(=O)(=O)C(F)(F)Br)n1` [Example 1, 3-(bromodifluoromethylsulfonyl)-1-(N,N-diethylcarbamoyl)-1,2,4-triazole] was tested, and the “PPI activity GR80, BROTE” value was 300 g/ha.

The compounds below were run on STEME (common chickweed) in the same assay as above. Conditions: Stellaria media; weed, PPI application, 30 g/ha; read-out: Percent inhibition STEME.
Assay type: in vivo, Stellaria media
Method: as §2, §3, §4
`CCN(CC)C(=O)n1cnc(S(=O)(=O)C(F)(F)Br)n1` [Example 1, 3-(bromodifluoromethylsulfonyl)-1-(N,N-diethylcarbamoyl)-1,2,4-triazole] showed an inhibition at 30 g/ha of 60%.

Same assay, conditions: Stellaria media; weed, PPI application, 100 g/ha; read-out: Percent inhibition STEME
For `CCN(CC)C(=O)n1cnc(S(=O)(=O)C(F)(F)Br)n1` [Example 1, 3-(bromodifluoromethylsulfonyl)-1-(N,N-diethylcarbamoyl)-1,2,4-triazole], the inhibition at 100 g/ha was 100%.

Same assay, conditions: Stellaria media; weed, PPI application, 300 g/ha; read-out: Percent inhibition STEME
Compound `CCN(CC)C(=O)n1cnc(S(=O)(=O)C(F)(F)Br)n1` [Example 1, 3-(bromodifluoromethylsulfonyl)-1-(N,N-diethylcarbamoyl)-1,2,4-triazole] has an inhibition at 300 g/ha of 99%.

Same assay, conditions: Stellaria media; weed, PPI application, 900 g/ha; read-out: Percent inhibition STEME
`CCN(CC)C(=O)n1cnc(S(=O)(=O)C(F)(F)Br)n1` [Example 1, 3-(bromodifluoromethylsulfonyl)-1-(N,N-diethylcarbamoyl)-1,2,4-triazole] showed an inhibition at 900 g/ha of 95%.

Same assay, conditions: pre-plant incorporated; lowest tested rate with 80% or greater inhibition; about 14 days
In the case of `CCN(CC)C(=O)n1cnc(S(=O)(=O)C(F)(F)Br)n1` [Example 1, 3-(bromodifluoromethylsulfonyl)-1-(N,N-diethylcarbamoyl)-1,2,4-triazole], the “PPI activity GR80, STEME” value is reported as 100 g/ha.

The compounds below were run on ALOMY (blackgrass) (assay: Post-emergence herbicidal activity, cool season). Conditions: abraded plants sprayed at 300, 100, 30 and 10 g/ha; about 14 days after treatment.
Assay type: in vivo, Alopecurus myosuroides
Outline: as §1
`CCN(CC)C(=O)n1cnc(S(=O)(=O)C(F)(F)Br)n1` [Example 1, 3-(bromodifluoromethylsulfonyl)-1-(N,N-diethylcarbamoyl)-1,2,4-triazole] was tested, and the “Post-emergence activity GR80, ALOMY” value was “[empty]”.

Each compound was assayed on SETFA (giant foxtail) (assay: Pre-plant incorporated (PPI) herbicidal activity, warm season). Conditions: Setaria faberi; PPI application, 10 g/ha; read-out: Percent inhibition SETFA.
Assay type: in vivo, Setaria faberi
Method: as §2, §3, §4
`CCN(CC)C(=O)n1cnc(S(=O)(=O)C(F)(F)Br)n1` [Example 1, 3-(bromodifluoromethylsulfonyl)-1-(N,N-diethylcarbamoyl)-1,2,4-triazole] was tested, and the inhibition at 10 g/ha was 100%.

Same assay, conditions: Setaria faberi; PPI application, 30 g/ha; read-out: Percent inhibition SETFA
`CCN(CC)C(=O)n1cnc(S(=O)(=O)C(F)(F)Br)n1` [Example 1, 3-(bromodifluoromethylsulfonyl)-1-(N,N-diethylcarbamoyl)-1,2,4-triazole] gave an inhibition at 30 g/ha of 70%.

Same assay, conditions: Setaria faberi; PPI application, 100 g/ha; read-out: Percent inhibition SETFA
In the case of `CCN(CC)C(=O)n1cnc(S(=O)(=O)C(F)(F)Br)n1` [Example 1, 3-(bromodifluoromethylsulfonyl)-1-(N,N-diethylcarbamoyl)-1,2,4-triazole], the inhibition at 100 g/ha is reported as 100%.

Same assay, conditions: Setaria faberi; PPI application, 300 g/ha; read-out: Percent inhibition SETFA
For `CCN(CC)C(=O)n1cnc(S(=O)(=O)C(F)(F)Br)n1` [Example 1, 3-(bromodifluoromethylsulfonyl)-1-(N,N-diethylcarbamoyl)-1,2,4-triazole], the inhibition at 300 g/ha was 100%.

Same assay, conditions: Setaria faberi; PPI application, 900 g/ha; read-out: Percent inhibition SETFA
`CCN(CC)C(=O)n1cnc(S(=O)(=O)C(F)(F)Br)n1` [Example 1, 3-(bromodifluoromethylsulfonyl)-1-(N,N-diethylcarbamoyl)-1,2,4-triazole] gave an inhibition at 900 g/ha of 100%.

Same assay, conditions: pre-plant incorporated; lowest tested rate with 80% or greater inhibition; about 14 days
In the case of `CCN(CC)C(=O)n1cnc(S(=O)(=O)C(F)(F)Br)n1` [Example 1, 3-(bromodifluoromethylsulfonyl)-1-(N,N-diethylcarbamoyl)-1,2,4-triazole], the “PPI activity GR80, SETFA” value is reported as 30 g/ha.

What follows are compounds tested on SETVI (green foxtail) (assay: Pre-plant incorporated (PPI) herbicidal activity, cool season). Conditions: Setaria viridis; weed, PPI application, 30 g/ha; read-out: Percent inhibition SETVI.
Assay type: in vivo, Setaria viridis
Method: as §2, §3, §4
With `CCN(CC)C(=O)n1cnc(S(=O)(=O)C(F)(F)Br)n1` [Example 1, 3-(bromodifluoromethylsulfonyl)-1-(N,N-diethylcarbamoyl)-1,2,4-triazole] the inhibition at 30 g/ha was 80%.

Same assay, conditions: Setaria viridis; weed, PPI application, 100 g/ha; read-out: Percent inhibition SETVI
In the case of `CCN(CC)C(=O)n1cnc(S(=O)(=O)C(F)(F)Br)n1` [Example 1, 3-(bromodifluoromethylsulfonyl)-1-(N,N-diethylcarbamoyl)-1,2,4-triazole], the inhibition at 100 g/ha is reported as 99%.

Same assay, conditions: Setaria viridis; weed, PPI application, 300 g/ha; read-out: Percent inhibition SETVI
For `CCN(CC)C(=O)n1cnc(S(=O)(=O)C(F)(F)Br)n1` [Example 1, 3-(bromodifluoromethylsulfonyl)-1-(N,N-diethylcarbamoyl)-1,2,4-triazole], the inhibition at 300 g/ha was 100%.

Same assay, conditions: Setaria viridis; weed, PPI application, 900 g/ha; read-out: Percent inhibition SETVI
Compound `CCN(CC)C(=O)n1cnc(S(=O)(=O)C(F)(F)Br)n1` [Example 1, 3-(bromodifluoromethylsulfonyl)-1-(N,N-diethylcarbamoyl)-1,2,4-triazole] has an inhibition at 900 g/ha of 100%.

Same assay, conditions: pre-plant incorporated; lowest tested rate with 80% or greater inhibition; about 14 days
For `CCN(CC)C(=O)n1cnc(S(=O)(=O)C(F)(F)Br)n1` [Example 1, 3-(bromodifluoromethylsulfonyl)-1-(N,N-diethylcarbamoyl)-1,2,4-triazole], the “PPI activity GR80, SETVI” value was 100 g/ha.
